For orientation: IC50 means the concentration that inhibits the measured activity by half.

SMILES strings stand for the structures. A value given as a limit tells only on which side of the number the result lay.

Results on 46 molecules are retold here after patent publication US20120220567A1, “BENZO-FUSED OXAZEPINE COMPOUNDS AS STEAROYL-COENZYME A DELTA-9 DESATURASE INHIBITORS” (priority 2009, published 2012).

For one assay, the target named is T1, SCD-1 (Homo sapiens, UniProt O00767).
T1 construct: 50 μg of protein from a HepG2 cell P2 pellet; endogenous in cells; host or cells: HepG2 cells (P2 pellet)
T1 sequence (O00767 1-359): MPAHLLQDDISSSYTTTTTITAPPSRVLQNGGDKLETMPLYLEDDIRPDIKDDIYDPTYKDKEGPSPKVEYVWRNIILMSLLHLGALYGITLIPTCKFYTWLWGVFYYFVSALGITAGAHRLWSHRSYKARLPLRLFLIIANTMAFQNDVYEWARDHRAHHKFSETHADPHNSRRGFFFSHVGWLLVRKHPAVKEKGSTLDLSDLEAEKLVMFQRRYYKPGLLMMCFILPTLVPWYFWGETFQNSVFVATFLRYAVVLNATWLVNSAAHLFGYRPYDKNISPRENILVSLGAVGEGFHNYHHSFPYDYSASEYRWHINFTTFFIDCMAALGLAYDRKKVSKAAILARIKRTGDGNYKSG
Nature of the assay: Stearoyl-CoA desaturase assay (HepG2 cell P2 pellet). It counts as biochemical. Particulars: Table 1, compounds of formula (Ia); protein from HepG2 cell P2 pellet, 20 μM stearoyl-CoA, 15 min at 25° C.; read-out: Ave IC50. How it is done:
Stearoyl-CoA desaturase assays were performed in according to Talamo and Bloch. […] Assays were run in triplicate in 100-μl volumes of 100 mM TrisHCl, pH 7.3, containing 20 μM stearoyl-CoA, 2 mM β-NADH, and 50 μg of protein from a HepG2 cell P2 pellet. Since SCD-1 is the only isoform of SCD expressed in these cells, the assay is specific for SCD-1 with these cells as the source of enzyme. Reaction mixtures were incubated fifteen minutes at 25° C. and reactions were then stopped with a volume of trichloroacetic acid giving a final concentration of 0.2%. After five minutes, a 90-μl volume was transferred to a Millipore Multiscreen HTS 96-well filtration plate (MSHVN4B50) containing 125 μl of 10% charcoal in each well, to which vacuum had been previously applied. Plates were shaken fifteen minutes and then filtered into a collection plate. Fifty-μI volumes of filtrate were transferred to another plate containing 150 μl of MicroScint 40 for counting on a TopCount scintillation counter.
Turning to `CC(=O)NCC(=O)N1CCC2(CC1)CCN(Cc1ccc(C)cc1)c1ccccc1O2` [Compound 35], the 50% inhibitory concentration (IC50) lay within 500 to 10000 nM.
In the case of `CC(=O)NCC(=O)N1CCC2(CC1)CCN(Cc1cccc(OC(F)(F)F)c1)c1ccccc1O2` [Compound 36], the IC50 is 500 to 10000 nM.
Regarding `CC(=O)NCC(=O)N1CCC2(CC1)CCN(Cc1ccc(OC(C)(C)C)cc1)c1ccccc1O2` [Compound 18], the IC50 is above 10000 nM.
Still for that read-out and setting: the value for `CC(=O)NCC(=O)N1CCC2(CC1)CCN(Cc1ccc(C)s1)c1ccccc1O2` [Compound 20] was above 10000 nM; that for `CC(=O)NCC(=O)N1CCC2(CC1)CCN(Cc1ccc(C#N)cc1)c1ccccc1O2` [Compound 23] was above 10000 nM.
Still for that read-out and setting: the value for `CCc1ccc(CN2CCC3(CCN(C(=O)CNC(=O)C[C@@H](C)O)CC3)Oc3ccccc32)cc1` [Compound 8] was 500 to 10000 nM; that for `COC(=O)c1cccc(CN2CCC3(CCN(C(=O)CNC(C)=O)CC3)Oc3ccccc32)c1` [Compound 25] was 500 to 10000 nM; that for `CCc1ccc(CN2CCC3(CCN(C(=O)[C@@H](C)NC(C)=O)CC3)Oc3ccccc32)cc1` [Compound 4] was 500 to 10000 nM.
Take `CC(=O)NCC(=O)N1CCC2(CC1)CCN(Cc1ccc(F)cc1)c1ccccc1O2` [Compound 27]: the IC50 was in the range of 50 to 499 nM.
As to `CC(=O)NCC(=O)N1CCC2(CC1)CCN(Cc1ccc(C#N)cc1)c1ccccc1O2` [Compound 21], the IC50 fell in the range of 500 to 10000 nM.
Same read-out and setting: then `CCc1ccc(CN2CCC3(CCN(C(=O)CNC(=O)CC4CC4)CC3)Oc3ccccc32)cc1` [Compound 7], with 50 to 499 nM; and `CCc1ccc(CN2CCC3(CCN(C(=O)CNC(=O)C(C)C)CC3)Oc3ccccc32)cc1` [Compound 6], with 500 to 10000 nM; and `CC(=O)NCC(=O)N1CCC2(CC1)CCN(Cc1ccc(Br)s1)c1ccccc1O2` [Compound 34], with 500 to 10000 nM.
For `CC(=O)NCC(=O)N1CCC2(CC1)CCN(Cc1ccccc1F)c1ccccc1O2` [Compound 19], the IC50 is above 10000 nM.
The same measure, in the same setting: then `CC(=O)NCC(=O)N1CCC2(CC1)CCN(Cc1ccccc1Cl)c1ccccc1O2` [Compound 28], with 500 to 10000 nM.
The same measure, in the same setting: then `CCc1ccc(CN2CCC3(CCN(C(=O)CNC(=O)C4CC4)CC3)Oc3ccccc32)cc1` [Compound 5], with 500 to 10000 nM; and `CC(=O)NCC(=O)N1CCC2(CC1)CCN(Cc1ccccc1C)c1ccccc1O2` [Compound 41], with 500 to 10000 nM.

Staying with this assay, now noted: Table 2, compounds of formula (Ib); protein from HepG2 cell P2 pellet, 20 μM stearoyl-CoA, 15 min at 25° C.; read-out: Ave IC50.
For the molecule `CN(C)CCNC(=O)c1cnc(N2CCC3(CC2)CCN(Cc2ccc(C(C)(C)C)cc2)c2cccc(F)c2O3)s1` [Compound 105], the IC50 is above 10000 nM.
Still for that read-out and setting: the value for `O=C(NCc1ccccc1)c1cnc(N2CCC3(CC2)CCN(Cc2cccc(C(F)(F)F)c2)c2ccccc2O3)s1` [Compound 57] was 500 to 10000 nM.
Same read-out and setting: the value for `Cc1ccc(CNC(=O)c2cnc(N3CCC4(CC3)CCN(Cc3ccc(C(C)(C)C)cc3)c3cccc(F)c3O4)s2)o1` [Compound 104] was 50 to 499 nM; that for `CC(C)(C)OC(=O)CCNC(=O)c1cnc(N2CCC3(CC2)CCN(Cc2ccc(C(C)(C)C)cc2)c2ccccc2O3)s1` [Compound 125] was 500 to 10000 nM; that for `CC(C)(C)c1ccc(CN2CCC3(CCN(c4ncc(C(=O)NCC(F)(F)F)s4)CC3)Oc3c(F)cccc32)cc1` [Compound 98] was 50 to 499 nM.
With `O=C(O)CCNC(=O)c1cnc(N2CCC3(CC2)CCN(Cc2cccc(C(F)(F)F)c2)c2ccccc2O3)s1` [Compound 129], the IC50 was in the range of 0.5 to 49 nM.
Still for that read-out and setting: then `CC(C)(C)c1ccc(CN2CCC3(CCN(c4ncc(C(=O)Nc5ccccc5)s4)CC3)Oc3ccccc32)cc1` [Compound 71], with above 10000 nM; and `O=C(NCCCO)c1cnc(N2CCC3(CC2)CCN(Cc2cccc(C(F)(F)F)c2)c2cccc(F)c2O3)s1` [Compound 131], with 0.5 to 49 nM; and `CC(C)(C)c1ccc(CN2CCC3(CCN(c4ncc(C(=O)NCCCO)s4)CC3)Oc3ccccc32)cc1` [Compound 134], with 0.5 to 49 nM.
Turning to `N#Cc1cnc(N2CCC3(CC2)CCN(Cc2cccc(C(F)(F)F)c2)c2ccccc2O3)s1` [Compound 127], the IC50 was in the range of 0.5 to 49 nM.
As to `CC(C)(C)c1ccc(CN2CCC3(CCN(c4ncc(C(=O)NC5CC5)s4)CC3)Oc3ccccc32)cc1` [Compound 65], the IC50 lay in the range of 50 to 499 nM.
Regarding `CC(C)(C)c1ccc(CN2CCC3(CCN(c4ncc(C(=O)NCCC(=O)O)s4)CC3)Oc3c(F)cccc32)cc1` [Compound 123], the IC50 lay in the range of 0.5 to 49 nM.
On to `COC(=O)c1cnc(N2CCC3(CC2)CCN(Cc2cccc(C(F)(F)F)c2)c2ccccc2O3)s1` [Compound 50, methyl 2-(5-(3-(trifluoromethyl)benzyl)-4,5-dihydro-3H-spiro[benzo[b][1,4]oxazepine-2,4′-piperidine]-1′-yl)thiazole-5-carboxylate], for which the concentration for half-maximal inhibition (IC50) is 0.5 to 49 nM.
For `CC(C)(C)c1ccc(CN2CCC3(CCN(c4ncc(C(=O)N5CCCC5)s4)CC3)Oc3ccccc32)cc1` [Compound 72], the IC50 was 500 to 10000 nM.
With `CC(C)(C)c1ccc(CN2CCC3(CCN(c4ncc(C(=O)NC[C@H]5CC[C@H](O)C5)s4)CC3)Oc3c(F)cccc32)cc1` [Compound 82], the IC50 is above 10000 nM.
Turning to `CC(C)(C)c1ccc(CN2CCC3(CCN(c4ncc(C(=O)NCc5ccccn5)s4)CC3)Oc3c(F)cccc32)cc1` [Compound 85], the IC50 is 50 to 499 nM.
On the same count and under the same terms, then `O=C(O)CNC(=O)c1cnc(N2CCC3(CC2)CCN(Cc2cccc(C(F)(F)F)c2)c2ccccc2O3)s1` [Compound 136], with 0.5 to 49 nM; and `CC(C)(C)c1ccc(CN2CCC3(CCN(c4ncc(C(=O)NC[C@@H](O)CO)s4)CC3)Oc3c(F)cccc32)cc1` [Compound 95], with 50 to 499 nM; and `CC(C)(C)OC(=O)CNC(=O)c1cnc(N2CCC3(CC2)CCN(Cc2ccc(C(C)(C)C)cc2)c2cccc(F)c2O3)s1` [Compound 115], with 0.5 to 49 nM.
`CC(C)(C)c1ccc(CN2CCC3(CCN(c4ncc(C(=O)NC[C@H](O)c5ccccc5)s4)CC3)Oc3c(F)cccc32)cc1` [Compound 99]: the IC50 fell in the range of 500 to 10000 nM.
On the same count and under the same terms, the value for `CC(C)(C)c1ccc(CN2CCC3(CCN(c4ncc(C(=O)NCc5ccccn5)s4)CC3)Oc3c(F)cccc32)cc1` [Compound 106] was above 10000 nM.

The assay is the same for the next values; noted with them: Table 3, compounds of formula (Ic); protein from HepG2 cell P2 pellet, 20 μM stearoyl-CoA, 15 min at 25° C.; read-out: Ave IC50.
As to `O=C(NCCc1c[nH]cn1)c1ccc(N2CCC3(CC2)CCN(Cc2cccc(C(F)(F)F)c2)c2ccccc2O3)nn1` [Compound 162], the IC50 lay within 0.5 to 49 nM.
With `CN(C)CCNC(=O)c1ccc(N2CCC3(CC2)CCN(Cc2cccc(C(F)(F)F)c2)c2ccccc2O3)nn1` [Compound 154], the IC50 is 500 to 10000 nM.
On to `O=C(NCCC1CC1)c1ccc(N2CCC3(CC2)CCN(Cc2cccc(C(F)(F)F)c2)c2ccccc2O3)nn1` [Compound 151], for which the IC50 was 0.5 to 49 nM.
The same measure, in the same setting: then `CC(C)(C)CCNC(=O)c1ccc(N2CCC3(CC2)CCN(Cc2cccc(C(F)(F)F)c2)c2ccccc2O3)nn1` [Compound 159], with 500 to 10000 nM.
In the case of `O=C(NCCC1CC1)c1ccc(N2CCC3(CC2)CCN(Cc2ccc(Oc4ccccc4)cc2)c2ccccc2O3)nn1` [Compound 183], the IC50 is 0.5 to 49 nM.
On the same count and under the same terms, the value for `CC(C)c1ccc(CN2CCC3(CCN(c4ccc(C(N)=O)nn4)CC3)Oc3ccccc32)cc1` [Compound 182] was 0.5 to 49 nM; that for `CCNC(=O)c1ccc(N2CCC3(CC2)CCN(Cc2cccc(C(F)(F)F)c2)c2ccccc2O3)nn1` [Compound 167] was 50 to 499 nM; that for `O=C(NCC1CC1)c1ccc(N2CCC3(CC2)CCN(Cc2cccc(C(F)(F)F)c2)c2ccccc2O3)nn1` [Compound 168] was 50 to 499 nM.
